These results are taken from PubChem BioAssay (NCI).

Structures are written as SMILES. ≈ marks a conversion by molar mass, not a printed value.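 Method: 48-hour compound exposure of cells in 96-well plates, five concentrations, linear interpolation of endpoints. GI50: concentration for 50% inhibition of growth. TGI denotes the concentration required for complete inhibition of growth.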

Some test systems named below: MALME-3M melanoma; K-562 leukemia; SF-539 CNS; COLO 205 colon; HCT-15 colon; SK-MEL-5 melanoma; MCF7 breast; HCT-116 colon; CAKI-1 renal; NCI-H460 lung.
Test in all cases: inhibition of tumour cell growth, NCI panel, 48 h

With `Cc1c2ccncc2cc2c1[nH]c1ccccc12`, the TGI turned out to be 20.5 µM with MALME-3M melanoma; 6.01 µM in the experiment with K-562 leukemia; 5.17 µM in the experiment on SF-539 CNS; 7.72 µM in the experiment with COLO 205 colon; 28.1 µM with HCT-15 colon; 11.2 µM with SK-MEL-5 melanoma. For the same compound, the TGI in the experiment on MCF7 breast amounted to 23.5 µM; with HCT-116 colon it was 7.12 µM; in the experiment on CAKI-1 renal it was 10.5 µM; with NCI-H460 lung, 5.77 µM.
On to `Nc1nc(Cl)c(N)c(NCC2(CO)CC2)n1`, for which the TGI with MALME-3M melanoma, in the experiment with K-562 leukemia, with SF-539 CNS, in the experiment on COLO 205 colon, in the experiment on HCT-15 colon and in the experiment on SK-MEL-5 melanoma was greater than 100 µM each time. Besides, the TGI in the experiment on MCF7 breast, with HCT-116 colon, in the experiment on CAKI-1 renal and with NCI-H460 lung was greater than 100 µM in each case.
Take `CCN(CC)CCCNc1ccc2nc(C)n3c4ccc(O)cc4c(=O)c1c23`: the TGI with MALME-3M melanoma was 22.8 µM; in the experiment with K-562 leukemia it was 37.2 µM; in the experiment on SF-539 CNS, 22.7 µM; in the experiment on COLO 205 colon it was 20.3 µM; in the experiment on HCT-15 colon, 15.6 µM; in the experiment on SK-MEL-5 melanoma, 24.5 µM. Also, the TGI stood at 17.6 µM with MCF7 breast, 11.1 µM with HCT-116 colon, 23.6 µM with CAKI-1 renal and 12.1 µM in the experiment with NCI-H460 lung.
`O=C(/C=C/c1cccc(Oc2ccccc2)c1)NCc1ccc(C(=O)NCc2ccccc2)cc1`: the TGI in the experiment on MALME-3M melanoma, in the experiment on K-562 leukemia, in the experiment with SF-539 CNS, in the experiment on COLO 205 colon, in the experiment on HCT-15 colon and in the experiment on SK-MEL-5 melanoma was greater than 100 µM each time. Also, the TGI with MCF7 breast, with HCT-116 colon, in the experiment with CAKI-1 renal and in the experiment with NCI-H460 lung was greater than 100 µM in each case.
On to `C/C(=N\N=C(\N)SB(F)F)c1ccc2ccccc2c1`, for which the TGI in the experiment on MALME-3M melanoma, in the experiment on K-562 leukemia, with SF-539 CNS, with COLO 205 colon, with HCT-15 colon and in the experiment on SK-MEL-5 melanoma was greater than 100 µM in each case. Also, the TGI in the experiment with MCF7 breast, in the experiment on HCT-116 colon, in the experiment on CAKI-1 renal and in the experiment with NCI-H460 lung was greater than 100 µM in each case.
With `CS(=O)(=O)OCCN(CCOS(C)(=O)=O)c1ccc(C=Nc2cccc(Cl)c2)cc1`, the TGI was 33.2 µM in the experiment on MALME-3M melanoma; greater than 100 µM with K-562 leukemia; 27.3 µM with SF-539 CNS; 6.56 µM in the experiment on COLO 205 colon; 10 µM in the experiment with HCT-15 colon; 22.6 µM in the experiment with SK-MEL-5 melanoma. Besides, the TGI with MCF7 breast is greater than 100 µM; in the experiment with HCT-116 colon, greater than 100 µM; with CAKI-1 renal, 1.56 µM; in the experiment on NCI-H460 lung it was greater than 33.4 µM.
Turning to `CC(NC(=O)NC(C)(C)C)NC(=O)C(N)CC(=O)O` (stereo not given), the TGI with MALME-3M melanoma, with K-562 leukemia, in the experiment on SF-539 CNS, in the experiment on COLO 205 colon, in the experiment on HCT-15 colon and with SK-MEL-5 melanoma was greater than 100 µM in each case. The TGI with MCF7 breast, in the experiment on HCT-116 colon, in the experiment with CAKI-1 renal and in the experiment with NCI-H460 lung was greater than 100 µM throughout.
Consider `CC(=O)c1c(C)nc(SSc2nc(C)c(C(C)=O)c(-c3ccc(Cl)cc3)c2C#N)c(C#N)c1-c1ccc(Cl)cc1`, for which the GI50 is 50.9 µg/mL (≈ 84.3 µM) with MALME-3M melanoma; 60.6 µg/mL (≈ 100 µM) in the experiment with K-562 leukemia; 47.7 µg/mL (≈ 79.1 µM) with SF-539 CNS; greater than 150 µg/mL with COLO 205 colon; greater than 150 µg/mL with HCT-15 colon; 61.7 µg/mL (≈ 102 µM) with SK-MEL-5 melanoma. Besides, the GI50 was greater than 150 µg/mL in the experiment with MCF7 breast, 94.4 µg/mL (≈ 156 µM) in the experiment with HCT-116 colon, 62.7 µg/mL (≈ 104 µM) in the experiment on CAKI-1 renal and 136 µg/mL (≈ 225 µM) in the experiment on NCI-H460 lung. Moreover, the TGI with MALME-3M melanoma, with K-562 leukemia, in the experiment with SF-539 CNS, with COLO 205 colon, in the experiment with HCT-15 colon and with SK-MEL-5 melanoma was greater than 150 µg/mL in each case. Moreover, the TGI with MCF7 breast, in the experiment on HCT-116 colon, with CAKI-1 renal and with NCI-H460 lung was greater than 150 µg/mL throughout.
As for `O=C1C(Br)=C(c2ccccc2)O/C1=C/C(=O)c1ccc(Br)cc1`, the TGI in the experiment with MALME-3M melanoma, in the experiment with K-562 leukemia, in the experiment on SF-539 CNS, in the experiment with COLO 205 colon, in the experiment on HCT-15 colon and with SK-MEL-5 melanoma was greater than 100 µM in each case. In addition, the TGI is greater than 100 µM with MCF7 breast, greater than 100 µM in the experiment on HCT-116 colon, 35 µM with CAKI-1 renal and greater than 100 µM in the experiment with NCI-H460 lung.
In the case of `COc1ccc2nc(-c3ccccc3)cc(OCC(=O)O)c2c1`, the TGI in the experiment on MALME-3M melanoma, in the experiment on K-562 leukemia, with SF-539 CNS, in the experiment with COLO 205 colon, with HCT-15 colon and in the experiment on SK-MEL-5 melanoma was greater than 100 µM each time. The TGI in the experiment with MCF7 breast, with HCT-116 colon, with CAKI-1 renal and in the experiment with NCI-H460 lung was greater than 100 µM in each case.
In the case of `O=C(O)CCS/C(=C\C(SCCC(=O)O)c1ccc(Cl)cc1)c1ccc(Cl)cc1` (stereo not given), the TGI in the experiment with MALME-3M melanoma was greater than 100 µM; in the experiment with K-562 leukemia, greater than 100 µM; in the experiment on SF-539 CNS it was greater than 100 µM; in the experiment on COLO 205 colon, 43.4 µM; in the experiment on HCT-15 colon, greater than 100 µM; in the experiment on SK-MEL-5 melanoma, greater than 100 µM. Further, the TGI was 60.9 µM with MCF7 breast, 57.5 µM in the experiment with HCT-116 colon, greater than 100 µM with CAKI-1 renal and greater than 100 µM in the experiment with NCI-H460 lung.
In the case of `CC(C)(C)OC(=O)NC1CC2(C=C(Br)C(=O)C(Br)=C2)OC1=O` (stereo not given), the TGI in the experiment with MALME-3M melanoma came out at 18.9 µM; in the experiment on K-562 leukemia, 13.5 µM; in the experiment with SF-539 CNS, 42.5 µM; in the experiment with COLO 205 colon it was 13.4 µM; with HCT-15 colon it was 23 µM; with SK-MEL-5 melanoma it was 31.1 µM. The TGI was found to be 31.6 µM in the experiment on MCF7 breast, 9.21 µM with HCT-116 colon, 11.6 µM in the experiment on CAKI-1 renal and 38.5 µM with NCI-H460 lung.
Consider `COc1c(/C=C/C(C)(C)O)cc(C2CC(=O)c3c(O)cc(O)cc3O2)cc1CC=C(C)C` (stereo not given), for which the TGI stood at 18 µM in the experiment on MALME-3M melanoma; 35.7 µM in the experiment on K-562 leukemia; 17.4 µM in the experiment with SF-539 CNS; 17.7 µM in the experiment on COLO 205 colon; 17.5 µM in the experiment with HCT-15 colon; 15.6 µM in the experiment on SK-MEL-5 melanoma. For the same compound, the TGI was 15.3 µM with MCF7 breast, 18.4 µM with HCT-116 colon, greater than 50 µM with CAKI-1 renal and 16.5 µM in the experiment with NCI-H460 lung.
As to `CC[C@@]1(O)C(=O)OCc2c1cc1n(c2=O)Cc2c-1nc1ccccc1c2/C=N\NC(=O)C1CCCN1` (stereo not given in full), the TGI in the experiment on MALME-3M melanoma was greater than 89.4 µM; in the experiment with K-562 leukemia it was greater than 100 µM; in the experiment with SF-539 CNS, 0.318 µM; in the experiment on COLO 205 colon, greater than 100 µM; with HCT-15 colon it was greater than 61.9 µM; in the experiment with SK-MEL-5 melanoma, 2.25 µM. Moreover, the TGI in the experiment with MCF7 breast was 18.4 µM; in the experiment on HCT-116 colon it was 21.2 µM; in the experiment with CAKI-1 renal, greater than 23.5 µM; with NCI-H460 lung, 10.5 µM.
As for `c1ccc(C(NCC2CCO2)(c2ccccc2)c2ccccc2)cc1` (stereo not given), the TGI in the experiment with MALME-3M melanoma was 35.1 µM; in the experiment with K-562 leukemia it was greater than 100 µM; with SF-539 CNS it was 33.6 µM; with COLO 205 colon it was greater than 100 µM; with HCT-15 colon, 33.7 µM; in the experiment with SK-MEL-5 melanoma, 63.9 µM. Moreover, the TGI with MCF7 breast was found to be 31.7 µM; in the experiment on HCT-116 colon, 56 µM; in the experiment with CAKI-1 renal, 55.2 µM; in the experiment with NCI-H460 lung it was 33.9 µM.
For the compound `COC(=O)C1Cc2cc3c(cc2C1=O)CCCC3` (stereo not given), the TGI in the experiment on MALME-3M melanoma, in the experiment on K-562 leukemia, with SF-539 CNS, in the experiment on COLO 205 colon, in the experiment on HCT-15 colon and with SK-MEL-5 melanoma was greater than 100 µM throughout. The TGI in the experiment on MCF7 breast, in the experiment with HCT-116 colon, in the experiment with CAKI-1 renal and in the experiment on NCI-H460 lung was greater than 100 µM in each case.
`Cc1cc2/c(=C\c3ccc(N(C)C)cc3)c3ccccc3n2[n+]1C`: the TGI in the experiment on MALME-3M melanoma amounted to 2.98 µM; in the experiment on K-562 leukemia it was 21.4 µM; in the experiment on SF-539 CNS, 5.61 µM; in the experiment with COLO 205 colon, 0.354 µM; in the experiment with HCT-15 colon it was 34.7 µM; with SK-MEL-5 melanoma it was 1.58 µM. Besides, the TGI was 6.55 µM with MCF7 breast, 2.55 µM in the experiment with HCT-116 colon, 22.3 µM in the experiment with CAKI-1 renal and 2.02 µM in the experiment with NCI-H460 lung.
Take `C=C1C(=O)O[C@H]2C[C@@]3(COC(C)=O)C=COC=C(COC(=O)C(C)C)C3CC12` (stereo not given in full): the TGI in the experiment with MALME-3M melanoma, in the experiment with K-562 leukemia, with SF-539 CNS, with COLO 205 colon, with HCT-15 colon and with SK-MEL-5 melanoma was greater than 100 µM in each case. The TGI with MCF7 breast, in the experiment on HCT-116 colon, in the experiment on CAKI-1 renal and in the experiment on NCI-H460 lung was greater than 100 µM throughout.
Turning to `CSc1ccc(-c2cc(-c3nc4ccccc4[nH]3)no2)cc1`, the TGI in the experiment with MALME-3M melanoma is greater than 100 µM; in the experiment on K-562 leukemia it was 84.4 µM; with SF-539 CNS, greater than 100 µM; with COLO 205 colon, greater than 100 µM; with HCT-15 colon it was 62.9 µM; with SK-MEL-5 melanoma, 33.4 µM. In addition, the TGI in the experiment on MCF7 breast is 33.8 µM; in the experiment with HCT-116 colon it was greater than 100 µM; in the experiment with CAKI-1 renal, 70 µM; in the experiment with NCI-H460 lung it was 45.7 µM.
With `CC(C)CCC[C@@H](C)[C@H]1CC[C@H]2[C@@H]3CC[C@H]4C[C@@H](CCC=C(c5cc(Cl)c(O)c(C(=O)O)c5)c5cc(Cl)c(O)c(C(=O)O)c5)CC[C@]4(C)[C@H]3CC[C@]12C`, the TGI in the experiment with MALME-3M melanoma, in the experiment with K-562 leukemia, in the experiment on SF-539 CNS, in the experiment on COLO 205 colon, in the experiment with HCT-15 colon and with SK-MEL-5 melanoma was greater than 100 µM throughout. The TGI in the experiment with MCF7 breast, in the experiment with HCT-116 colon, with CAKI-1 renal and with NCI-H460 lung was greater than 100 µM each time.
Take `COC(CN(C(C)=O)C1CCC2(SCCS2)c2[nH]c3ccccc3c21)OC` (stereo not given): the TGI in the experiment on MALME-3M melanoma, in the experiment with K-562 leukemia, in the experiment on SF-539 CNS, in the experiment on COLO 205 colon, with HCT-15 colon and in the experiment with SK-MEL-5 melanoma was greater than 100 µM in each case. Also, the TGI in the experiment with MCF7 breast, in the experiment with HCT-116 colon, in the experiment with CAKI-1 renal and in the experiment with NCI-H460 lung was greater than 100 µM in each case.
